Experimental data from US11590139B2, “Substituted aminopurine compounds, compositions thereof, and methods of treatment therewith” (Signal Pharmaceuticals, LLC, priority 2014, dated 2023).

Test system: Lox-IMVI melanoma cell line
Assay: Lox-IMVI anti-proliferative assay (growth inhibition, Cell Titer-Glo)
Type: cell-based, human
Settings: Homo sapiens; IC50 activity level in the cell-based Lox-IMVI anti-proliferative assay; read-out: Activity
Procedure, shortened: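 Luminescence from cellular ATP measured viability at compound addition and again after 72 h of exposure (37 °C, 5% CO2, RPMI + 10% FBS). Doses spanned 0.5 nM to 10 μM in ten 3-fold steps with 0.2% DMSO. Values were fitted as % of DMSO-treated cells by sigmoidal dose-response.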

| IC50 | Molecule |
| --- | --- |
| > 1 µM | CC1(C)CC[C@@H](Nc2ncc3nc(Nc4c(F)cc(Cl)cc4F)n([C@H]4CC[C@@H](C(N)=O)CC4)c3n2)C[C@H]1O [Example 386, (1S,4s)-4-(8-(4-chloro-2,6-difluorophenylamino)-2-((1R,3R)-3-hydroxy-4,4-dimethylcyclohexylamino)-9H-purin-9-yl)cyclohexanecarboxamide] |
| > 1 µM | NC(=O)[C@H]1CC[C@@H](n2c(Nc3c(F)cc(Cl)cc3F)nc3cnc(N[C@H]4CCC[C@@H]4O)nc32)CC1 [Example 269, (1R,4s)-4-(8-(4-chloro-2,6-difluorophenylamino)-2-((1S,2S)-2-hydroxycyclopentylamino)-9H-purin-9-yl)cyclohexanecarboxamide] |
| > 1 µM | NC(=O)[C@H]1CC[C@@H](n2c(Nc3cccc(F)c3F)nc3cnc(NC4CCCC4)nc32)CC1 [Example 139, (1s,4s)-4-(2-(cyclopentylamino)-8-(2,3-difluorophenylamino)-9H-purin-9-yl)cyclohexanecarboxamide] |
| > 1 µM | Cc1c(Cl)ccc(Nc2nc3cnc(NC4CCOCC4)nc3n2[C@H]2CC[C@@H](C(N)=O)CC2)c1F [Example 102, (1s,4s)-4-(8-(4-chloro-2-fluoro-3-methylphenylamino)-2-(tetrahydro-2H-pyran-4-ylamino)-9H-purin-9-yl)cyclohexanecarboxamide] |
| > 1 µM | NC(=O)[C@H]1CC[C@@H](n2c(Nc3c(F)ccc(F)c3F)nc3cnc(N[C@@H]4CC[C@@H](O)C4)nc32)CC1 [Example 218, (1S,4s)-4-(2-((1R,3R)-3-hydroxycyclopentylamino)-8-(2,3,6-trifluorophenylamino)-9H-purin-9-yl)cyclohexanecarboxamide] |
| < 0.25 µM | NC(=O)[C@H]1CC[C@@H](n2c(Nc3c(Cl)cc(OC(F)(F)F)cc3Cl)nc3cnc(NC4CCOCC4)nc32)CC1 [Example 365, (1s,4s)-4-(8-(2,6-dichloro-4-(trifluoromethoxy)phenylamino)-2-(tetrahydro-2H-pyran-4-ylamino)-9H-purin-9-yl)cyclohexanecarboxamide] |
| > 1 µM | NC(=O)[C@H]1CC[C@@H](n2c(Nc3c(Cl)cccc3Cl)nc3cnc(NC4COC4)nc32)CC1 [Example 56, (1s,4s)-4-(8-(2,6-dichlorophenylamino)-2-(oxetan-3-ylamino)-9H-purin-9-yl)cyclohexanecarboxamide] |

Same assay, conditions: Homo sapiens; Lox-IMVI anti-proliferative assay, IC50 activity level; read-out: Activity

| IC50 | Molecule |
| --- | --- |
| 0.5 to 1 µM | CC(C)Nc1ncc2nc(Nc3c(F)cc(C#N)cc3F)n([C@H]3CC[C@@H](C(N)=O)CC3)c2n1 [Example 441, (1s,4s)-4-(8-(4-cyano-2,6-difluorophenylamino)-2-(isopropylamino)-9H-purin-9-yl)cyclohexanecarboxamide] |
| 0.5 to 1 µM | C[C@@H](CO)Nc1ncc2nc(Nc3c(Cl)cc(C(F)(F)F)cc3Cl)n([C@H]3CC[C@@](C)(C(N)=O)CC3)c2n1 [Example 554, (1R,4s)-4-(8-(2,6-dichloro-4-(trifluoromethyl)phenylamino)-2-((S)-1-hydroxypropan-2-ylamino)-9H-purin-9-yl)-1-methylcyclohexanecarboxamide] |
| 0.5 to 1 µM | NC(=O)[C@H]1CC[C@@H](n2c(Nc3c(F)cc(F)cc3F)nc3cnc(NC4CCCOCC4)nc32)CC1 (stereo partly drawn) [Example 536, (1s,4s)-4-(2-(oxepan-4-ylamino)-8-(2,4,6-trifluorophenylamino)-9H-purin-9-yl)cyclohexanecarboxamide] |
| > 1 µM | NC(=O)[C@H]1CC[C@@H](n2c(Nc3c(Cl)cc(Cl)cc3Cl)nc3cnc(N[C@@H]4CCCC[C@@H]4O)nc32)CC1 [Example 483, (1S,4s)-4-(2-((1R,2S)-2-hydroxycyclohexylamino)-8-(2,4,6-trichlorophenylamino)-9H-purin-9-yl)cyclohexanecarboxamide] |

Same assay, conditions: Lox-IMVI melanoma cell line, anti-proliferative assay; read-out: Activity (IC50 activity level)

| Molecule | IC50 |
| --- | --- |
| (R)-isopropyl 3-(9-((1s,4S)-4- carbamoylcyclohexyl)-8-(2-chloro-4- cyano-6-fluorophenylamino)-9H-purin- 2-ylamino)piperidine-1-carboxylate [Example 776] | 0.5 to 1 µM |
